# Reference: patent US6890762B1, “Method for measuring physiocochemical properties of tissues of cells, method for examining chemicals, and apparatus therefor” (Matsushita Technical Information Services Co., Ltd., priority 1996, dated 2005)
# Legend:
# [1] = tested on: slice of the cerebral cortex of a rat; assay: induced potential of cultivated rat cerebral cortex slice on integrated multiple electrode; format: cell-based; conditions: for chronic effect on the induced potential: 3 days after addition on the third day of culturing
# Experimental: In this example, a slice of the cerebral cortex of a rat was used as nervous tissue and cultivated with the culturing method described below. As a change in the physical and chemical environment, the stimulant drug methamphetamine has been added to the culturing fluid. Furthermore, the electrophysiological properties of the tissue or cells, that is the induced potential when a stimulus has been applied, were measured as the physical and chemical properties of the tissue or cells.
# Preceding the culturing of the cells, the surface of the integrated multiple electrode 2 was covered with collagen gel not thicker than 50 μm, to promote the adhesive strength between the microelectrodes 11 of the integrated multiple electrode 2 and the cells. Then the cerebral cortex slice of the rat (not thicker than 500 μm) was placed and cultivated on top of the microelectrodes 11 and the collagen gel. FIGS. 10(a)-(e) show the measured induced potentials 30 min after methamphetamine has been added in different concentrations to the culture medium on the sixth day of culturing, and FIGS. 11(a)-(c) show the measured induced potentials 3 days after methamphetamine has been added in different concentrations to the culture medium on the third day of culturing, together with the induced potential before the addition of the methamphetamine. In other words, FIGS. 10(a)-(e) show the acute effect of the methamphetamine and FIGS. 11(a)-(c) show the chronic effect of the methamphetamine.
# (4-2) Culturing Method for a Rat Cerebral Cortex Slice
# (a) A brain is taken from a two days old SD rat, and immersed in a Hanks' balanced salt solution cooled in iced water, with 0.25 vol. % D-glucose.
# (b) In the cooled Hanks' balanced salt solution with 0.25 vol.% D-glucose, the meninges attached to the brain is removed carefully without damaging the cerebral cortex with a sharp-tipped pincette.
# (c) A section is made with micro-scissors used in eye surgery, about 500 μm from the corpus callosum on one side of the cerebral cortex from which the meninges has been removed along the corpus callosum from the occipital lobe towards the frontal lobe.
# (d) Next, a slice is prepared with micro-scissors used in eye surgery by cutting vertically 200-300 μm into the cerebral cortex from the sectional plane described under (c).
# (e) Furthermore, the slice is adjusted with micro-scissors used in eye surgery to a size of about 1×1 mm.
# (f) The integrated multiple electrode, the preparation of which has been explained under “(3) Surface Processing of the Integrated Multiple Electrode 2”, is taken out of the CO2 incubator, the adjusted slice of the cerebral cortex is carefully taken up without damaging it with a pipette with at least 2 mm opening diameter, and moved into the well of the integrated multiple electrode 2.
# (g) The cerebral cortex is placed on the microelectrodes 11 with a layered portion pointing upwards, carefully so as not to damage the cerebral cortex, using a Pasteur pipette, the tip of which has been smoothed by heating with a burner.
# (h) After the slice of the cerebral cortex has been placed on the integrated multiple electrode 2, the amount of the culture medium is adjusted so that the bottom of the slice is immersed in the culture medium and the top of the slice is in the open air.
# (i) After the adjustment of the culture medium, the integrated multiple electrode 2 is placed on a Petri dish, about 5 mL of 37° C. sterile water is poured onto the Petri dish to prevent dehydration of the culture medium, and the integrated multiple electrode 2 is again placed in the CO2 incubator.
# (j) While observing the amount of the culture medium, the culture medium was renewed once every day. The amount of the culture medium is adjusted as described in (i).
# slice of a rat heart = assay: spontaneous activity potential of cultivated rat heart slice on integrated multiple electrode; format: cell-based; conditions: final concentration of 1 mM, added on the fifth day of the culturing
# Source text: This slice of a rat heart has been cultivated as explained below. […] The same culture medium as described in the first example was used. The structure of the integrated multiple electrode 2 and the surface processing was the same as described in the first example. In order to increase the adhesive strength between the tissue (the cells) and the microelectrodes 11 of the integrated multiple electrode 2, collagen gel (under 50 μm thick) has been applied to the surface of the integrated multiple electrode 2 before the culturing. Then the rat heart slice is placed and cultivated on the collagen gel where the microelectrodes 11 are. The rat heart slice is prepared, so that a sinoatrial node or an atrioventricular node is included. […] This culturing method is explained below. (a) A heart is taken from a two days old SD rat, and immersed in a Hanks' balanced salt solution cooled with ice water, with 0.25 vol. % D-glucose. The hanks' balanced salt solution is renewed several times to rinse out the blood completely. (b) Careful incision and preparation of a heart slice is performed, so that a sinoatrial node and an atrioventricular node are included in the heart slice. (c) The slice is adjusted with micro-scissors used in eye surgery to a size of about 1×1 mm. […]
SMILES,chronic effect on the induced potential ([1]; 0.01 mM methamphetamine),"acute effect on the induced potential ([1]; 0.1 mM methamphetamine, 30 min after addition on the sixth day of culturing)",chronic effect on the induced potential ([1]; 0.1 mM methamphetamine),"acute effect on the induced potential (deflection) ([1]; 0.5 mM methamphetamine, 30 min after addition on the sixth day of culturing)","acute effect on the induced potential ([1]; 1 mM methamphetamine, 30 min after addition on the sixth day of culturing)","induced potential after removal of the substance (chronic) ([1]; after the methamphetamine has been removed, chronic exposure)","induced potential after removal of the substance (acute) ([1]; methamphetamine removed from the fluid, culture medium returned to usual composition)",beat frequency of the spontaneous activity potential versus before the addition (slice of a rat heart)
CN[C@@H](C)Cc1ccccc1 [methamphetamine],disappeared,no noticeable acute effect,disappeared almost completely,somewhat smaller,disappeared almost completely,did not recover,recovered to almost the same condition as before,–
CNCC(O)c1ccc(O)c(O)c1 (centres unmarked) [adrenaline],–,–,–,–,–,–,–,noticeably higher
